This is an account of results in patent US12473295B2, “Substituted straight chain spiro derivatives” (Janssen Pharmaceutica NV, priority 2019, dated 2025).

Each structure is given as a SMILES string. Counter-ions that a name gives are not always drawn. Like-named read-outs stand apart in the source and are kept apart here. Where only a bound is given, the exact number is not on record here.

Assay [1] has as its system OCI-AML3 cells. In words: Proliferation assay (spheroid growth, 8 days), OCI-AML3. It counts as cell-based, human. As to conditions: OCI-AML3, 8 days. The method, boiled down:
(§1)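 8-day spheroid growth in ultra-low attachment plates; seeding 200 cells (MOLM14, OCI-AML3) or 300 (KO-52); DMSO 0.3%. Day-8 imaging, confluence vs DMSO (0%) and top reference dose (baseline); IC50 by variable-slope fit.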

Assay [2] relates to KO-52 cells. As to the kind of experiment: Proliferation assay (spheroid growth, 8 days), KO-52 control cell line. To be noted: Homo sapiens, […], read-out: spheroid assay_OneTime KO-52 IC50. It counts as cell-based, human. In outline: as §1
Assay [3] relates to MOLM14 cells. As to the kind of experiment: Proliferation assay (spheroid growth, 8 days), MOLM14.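 Further: spheroid size read as confluence by live-cell imaging, compounds added at a range of concentrations with 0.3% DMSO, DMSO-treated wells = 0%, highest reference dose = low control.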 It counts as cell-based, human. To be noted: MOLM14, 8 days, read-out: spheroid assay_OneTime MOLM14 IC50.
Assay [4] concerns MEIS1 mRNA. As to the kind of experiment: MEIS1 mRNA expression assay (Quantigene Singleplex) in MOLM14 cells.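 Further: MEIS1 transcript levels read by probe hybridization and normalized to RPL28 mRNA, with IC50 fitted to fold changes across a rising compound concentration series.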 In kind it is cell-based, human. To be noted: Homo sapiens, MOLM-14, 48 h, 48 hours incubation.
For assay [5], the target named is menin/MLL (terbium chelate-labeled menin, FITC-MBM1 peptide) (Homo sapiens (Human), UniProt O00255). As to the kind of experiment: Menin/MLL homogenous time-resolved fluorescence (HTRF) assay.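 Further: IC50 from percent inhibition of HTRF signal, normalized between wells without competitor and wells with a saturating competitor that displaces FITC-MBM1 from His-tagged menin.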 It counts as binding. To be noted: HTRF-30 min incubation IC50, 30 min incubation.
Chain of menin/MLL (terbium chelate-labeled menin, FITC-MBM1 peptide) (O00255 other isoform, or with tags, fused parts or gaps): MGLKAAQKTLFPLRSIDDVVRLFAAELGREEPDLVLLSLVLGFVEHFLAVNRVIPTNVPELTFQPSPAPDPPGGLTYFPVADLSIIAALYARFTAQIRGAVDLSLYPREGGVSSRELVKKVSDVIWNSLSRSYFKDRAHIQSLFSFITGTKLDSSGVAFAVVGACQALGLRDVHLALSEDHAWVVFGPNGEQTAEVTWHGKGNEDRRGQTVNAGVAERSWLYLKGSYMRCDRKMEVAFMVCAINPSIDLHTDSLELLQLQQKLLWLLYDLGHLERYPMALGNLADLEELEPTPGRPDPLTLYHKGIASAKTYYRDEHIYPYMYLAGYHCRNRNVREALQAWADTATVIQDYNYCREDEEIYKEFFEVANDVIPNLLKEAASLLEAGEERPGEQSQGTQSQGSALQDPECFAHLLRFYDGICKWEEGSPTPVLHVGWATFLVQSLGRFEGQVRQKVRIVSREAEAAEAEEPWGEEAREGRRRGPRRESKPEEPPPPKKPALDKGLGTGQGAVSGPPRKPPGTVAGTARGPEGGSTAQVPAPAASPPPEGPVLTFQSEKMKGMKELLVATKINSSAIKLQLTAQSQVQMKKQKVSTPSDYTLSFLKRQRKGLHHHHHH

As a reminder, the IC50 is the midpoint of a concentration-inhibition curve.

Regarding `CCN(C(=O)c1cc(F)ccc1Oc1nncnc1N1CCC2(C1)CN([C@H](CCCN(C)C[C@@H](C)OC)C(C)C)C2)C(C)C` (single isomer, unassigned) [Compound 250, N-ethyl-5-fluoro-N-isopropyl-2-((5-(2-((R)-6-(((*R)-2-methoxypropyl)(methyl)amino)-2-methylhexan-3-yl)-2,6-diazaspiro[3.4]octan-6-yl)-1,2,4-triazin-6-yl)oxy)benzamide oxalate], the IC50 in assay [1] (Homo sapiens, OCI-AML-3, […]) came to 410 nM; in assay [2], 7.05 µM; in assay [3] (Homo sapiens, MOLM-14, […]) it was 220 nM; in assay [4] it was 91 nM; in assay [5], 0.18 nM.

In the case of `CCN(C(=O)c1cc(F)ccc1Oc1nncnc1N1CCC2(C1)CN([C@H](CCCN(C)C[C@H](C)OC)C(C)C)C2)C(C)C` (single isomer, unassigned) [Compound 251, N-ethyl-5-fluoro-N-isopropyl-2-((5-(2-((R)-6-(((*S)-2-methoxypropyl)(methyl)amino)-2-methylhexan-3-yl)-2,6-diazaspiro[3.4]octan-6-yl)-1,2,4-triazin-6-yl)oxy)benzamide oxalate], the half-inhibitory concentration (IC50) was found to be 130 nM in assay [1] (Homo sapiens, OCI-AML-3, […]); 3.9 µM in assay [2]; 52 nM in assay [3] (Homo sapiens, MOLM-14, […]); 19 nM in assay [4]; 0.18 nM in assay [5].

Regarding `CCN(C(=O)c1cc(F)ccc1Oc1nncnc1N1CCC2(C1)CN(C(C(C)C)C(C)CCN(C)CCOC)C2)C(C)C` (single isomer, unassigned) [Compound 266, N-ethyl-5-fluoro-N-isopropyl-2-((5-(2-(6-((2-methoxyethyl)(methyl)amino)-2,4-dimethylhexan-3-yl)-2,6-diazaspiro[3.4]octan-6-yl)-1,2,4-triazin-6-yl)oxy)benzamide (mixture of R,R and S,S; or mixture of R,S and S,R) fumarate], the IC50 in assay [1] is 49 nM; in assay [2], above 15 µM; in assay [3] it was 29 nM; in assay [4] it was 39 nM; in assay [5], 0.92 nM.

For the molecule `CCN(C(=O)c1cc(F)ccc1Oc1nncnc1N1CCC2(C1)CN([C@H](CCNCCO)C(C)C)C2)C(C)C` (single isomer, unassigned) [Compound 268, (*R)—N-ethyl-5-fluoro-2-((5-(2-(1-((2-hydroxyethyl)amino)-4-methylpentan-3-yl)-2,6-diazaspiro[3.4]octan-6-yl)-1,2,4-triazin-6-yl)oxy)-N-isopropylbenzamide fumarate], the IC50 in assay [1] (Homo sapiens, OCI-AML-3, […]) is 530 nM; in assay [2], above 15 µM; in assay [3] (Homo sapiens, MOLM-14, […]), 200 nM; in assay [4], 340 nM; in assay [5], 0.29 nM.

With `CCN(C(=O)c1cc(F)ccc1Oc1nncnc1N1CCC2(C1)CN([C@H](CCN(C)CCO)C(C)C)C2)C(C)C` (single isomer, unassigned) [Compound 270, (*R)—N-ethyl-5-fluoro-2-((5-(2-(1-((2-hydroxyethyl)(methyl)amino)-4-methylpentan-3-yl)-2,6-diazaspiro[3.4]octan-6-yl)-1,2,4-triazin-6-yl)oxy)-N-isopropylbenzamide fumarate], the IC50 was 480 nM in assay [1] (Homo sapiens, OCI-AML-3, […]); above 15 µM in assay [2]; 140 nM in assay [3] (Homo sapiens, MOLM-14, […]); 220 nM in assay [4]; 0.54 nM in assay [5].

Regarding `CCN(C(=O)c1cc(F)ccc1Oc1nncnc1N1CCC2(C1)CN([C@H](CCNCCCOC)C(C)C)C2)C(C)C` (single isomer, unassigned) [Compound 271, (*R)—N-ethyl-5-fluoro-N-isopropyl-2-((5-(2-(1-((3-methoxypropyl)amino)-4-methylpentan-3-yl)-2,6-diazaspiro[3.4]octan-6-)-1,2,4-triazin-6-yl)oxy)benzamide], the half-inhibitory concentration (IC50) in assay [1] (Homo sapiens, OCI-AML-3, […]) was 160 nM; in assay [2], above 15 µM; in assay [3] (Homo sapiens, MOLM-14, […]), 65 nM; in assay [4], 100 nM; in assay [5] it was 0.27 nM.

Consider `CCNCC[C@H](C(C)C)N1CC2(CCN(c3ncnnc3Oc3ccc(F)cc3C(=O)N(CC)C(C)C)C2)C1` (single isomer, unassigned) [Compound 272, (*R)—N-ethyl-2-((5-(2-(1-(ethylamino)-4-methylpentan-3-yl)-2,6-diazaspiro[3.4]octan-6-yl)-1,2,4-triazin-6-yl)oxy)-5-fluoro-N-isopropylbenzamide formate], for which the concentration for half-maximal inhibition (IC50) in assay [1] (Homo sapiens, OCI-AML-3, […]) is 440 nM; in assay [2], above 15 µM; in assay [3] (Homo sapiens, MOLM-14, […]), 130 nM; in assay [4] it was 170 nM; in assay [5] it was 0.58 nM.

`CCN(C(=O)c1cc(F)ccc1Oc1nncnc1N1CCC2(C1)CN([C@H](CCNCCCO)C(C)C)C2)C(C)C` (single isomer, unassigned) [Compound 273, (*R)—N-ethyl-5-fluoro-2-((5-(2-(1-((3-hydroxypropyl)amino)-4-methylpentan-3-yl)-2,6-diazaspiro[3.4]octan-6-yl)-1,2,4-triazin-6-yl)oxy)-N-isopropylbenzamide]: the IC50 in assay [1] (Homo sapiens, OCI-AML-3, […]) is 830 nM; in assay [2] it was above 15 µM; in assay [3] (Homo sapiens, MOLM-14, […]), 390 nM; in assay [4], around 390 nM; in assay [5] it was 0.21 nM.

`CCN(C(=O)c1cc(F)ccc1Oc1nncnc1N1CCC2(C1)CN([C@H](CCN(C)CCCO)C(C)C)C2)C(C)C` (single isomer, unassigned) [Compound 274, (*R)—N-ethyl-5-fluoro-2-((5-(2-(1-((3-hydroxypropyl)(methyl)amino)-4-methylpentan-3-yl)-2,6-diazaspiro[3.4]octan-6-yl)-1,2,4-triazin-6-yl)oxy)-N-isopropylbenzamide]: the half-maximal inhibitory concentration (IC50) in assay [1] (Homo sapiens, OCI-AML-3, […]) is 640 nM; in assay [2], above 15 µM; in assay [3] (Homo sapiens, MOLM-14, […]), 200 nM; in assay [4], 230 nM; in assay [5] it was 0.38 nM.

For the molecule `CCN(C(=O)c1cc(F)ccc1Oc1nncnc1N1CCC2(C1)CN([C@H](CCN(C)CCCOC)C(C)C)C2)C(C)C` (single isomer, unassigned) [Compound 275, (*R)—N-ethyl-5-fluoro-N-isopropyl-2-((5-(2-(1-((3-methoxypropyl)(methyl)amino)-4-methylpentan-3-yl)-2,6-diazaspiro[3.4]octan-6-yl)-1,2,4-triazin-6-yl)oxy)benzamide], the concentration for half-maximal inhibition (IC50) was 330 nM in assay [1] (Homo sapiens, OCI-AML-3, […]); above 15 µM in assay [2]; 78 nM in assay [3] (Homo sapiens, MOLM-14, […]); 100 nM in assay [4]; 0.66 nM in assay [5].

With `CCN(C(=O)c1cc(F)ccc1Oc1nncnc1N1CCC2(C1)CN([C@H](CCN(C)CCOC)C(C)C)C2)C(C)C` (single isomer, unassigned) [Compound 276, (*R)—N-ethyl-5-fluoro-N-isopropyl-2-((5-(2-(1-((2-methoxyethyl)(methyl)amino)-4-methylpentan-3-yl)-2,6-diazaspiro[3.4]octan-6-yl)-1,2,4-triazin-6-yl)oxy)benzamide], the IC50 was 1610 nM in assay [1] (Homo sapiens, OCI-AML-3, […]); above 15 µM in assay [2]; 240 nM in assay [3] (Homo sapiens, MOLM-14, […]); 390 nM in assay [4]; 0.5 nM in assay [5].

In the case of `CCN(C(=O)c1cc(F)ccc1Oc1nncnc1N1CCC2(C1)CN([C@H](CCNCCC(N)=O)C(C)C)C2)C(C)C` (single isomer, unassigned) [Compound 278, (*R)-2-((5-(2-(1-((3-amino-3-oxopropyl)amino)-4-methylpentan-3-yl)-2,6-diazaspiro[3.4]octan-6-yl)-1,2,4-triazin-6-yl)oxy)-N-ethyl-5-fluoro-N-isopropylbenzamide fumarate], the half-inhibitory concentration (IC50) is 3210 nM in assay [1] (Homo sapiens, OCI-AML-3, […]); above 15 µM in assay [2]; above 940 nM in assay [3] (Homo sapiens, MOLM-14, […]); above 1000 nM in assay [4]; 0.068 nM in assay [5].

Turning to `CCN(C(=O)c1cc(F)ccc1Oc1nncnc1N1CCC2(C1)CN([C@H](CCN(C)CCC(N)=O)C(C)C)C2)C(C)C` (single isomer, unassigned) [Compound 280, (*R)-2-((5-(2-(1-((3-amino-3-oxopropyl)(methyl)amino)-4-methylpentan-3-yl)-2,6-diazaspiro[3.4]octan-6-yl)-1,2,4-triazin-6-yl)oxy)-N-ethyl-5-fluoro-N-isopropylbenzamide fumarate], the IC50 in assay [1] (Homo sapiens, OCI-AML-3, […]) is 920 nM; in assay [2], above 15 µM; in assay [3] (Homo sapiens, MOLM-14, […]) it was 690 nM; in assay [4], 1070 nM; in assay [5], 0.2 nM.

Regarding `CCN(C(=O)c1cc(F)ccc1Oc1nncnc1N1CCC2(C1)CN([C@H](C[C@@H](CN(C)C)OC)C(C)C)C2)C(C)C` (single isomer, unassigned) [Compound 315, 2-((5-(2-((3*R,5*S)-6-(dimethylamino)-5-methoxy-2-methylhexan-3-yl)-2,6-diazaspiro[3.4]octan-6-yl)-1,2,4-triazin-6-yl)oxy)-N-ethyl-5-fluoro-N-isopropylbenzamide fumarate], the concentration for half-maximal inhibition (IC50) in assay [1] (Homo sapiens, OCI-AML-3, […]) was 1090 nM; in assay [2] it was above 15 µM; in assay [3] (Homo sapiens, MOLM-14, […]), 290 nM; in assay [4], around 330 nM; in assay [5], 0.51 nM.

Turning to `CCN(C(=O)c1cc(F)ccc1Oc1nncnc1N1CCC2(C1)CN([C@H](C[C@@H](O)CN(C)C(C)C)C(C)C)C2)C(C)C` (single isomer, unassigned) [Compound 323, N-ethyl-5-fluoro-2-((5-(2-((3*R,5*R)-5-hydroxy-6-(isopropyl(methyl)amino)-2-methylhexan-3-yl)-2,6-diazaspiro[3.4]octan-6-yl)-1,2,4-triazin-6-yl)oxy)-N-isopropylbenzamide fumarate], the 50% inhibitory concentration (IC50) in assay [1] (Homo sapiens, OCI-AML-3, […]) was 170 nM; in assay [2], 13.4 µM; in assay [3] (Homo sapiens, MOLM-14, […]), 110 nM; in assay [4], 62 nM; in assay [5] it was 0.49 nM.
